US9382295B2, “Cyclic depsipeptide compounds and their uses” (Cypralis Limited, priority 2012, dated 2016)
pKi: −log10 of the molar value. ≈ marks a conversion by molar mass, not a printed value. Like-named read-outs stand apart in the source and are kept apart here. Numbered stars: 1 amine (or outer) side, 2 acyl side, 3 side chain; on linkers, the order of the positions; unused ones are H or OH. Square brackets hold non-standard residues; d marks the D form. Peptide text beside a SMILES is read from it. X26 = C[C@H](C/C=C/c1cccc(N2CCOCC2)n1)[C@@H](O)[C@H](C(=O)[*:2])N(C)[*:1]; X10 = Cc1cccc(/C=C/C[C@@H](C)[C@@H](O)[C@H](C(=O)[*:2])N(C)[*:1])n1; X33 = C[C@H](CCN1CCC(F)(CO)CC1)[C@@H](O)[C@H](C(=O)[*:2])N(C)[*:1]; X20 = C[C@H](CCN1CCC(F)(F)CC1)[C@@H](O)[C@H](C(=O)[*:2])N(C)[*:1]; X1 = Cc1cccc(CCC[C@@H](C)[C@@H](O)[C@H](C(=O)[*:2])N(C)[*:1])n1; X8 = C[C@H](CCN1CCC[C@H]1CO)[C@@H](O)[C@H](C(=O)[*:2])N(C)[*:1]; X11 = C[C@H](CCN(C)CCC#N)[C@@H](O)[C@H](C(=O)[*:2])N(C)[*:1]; X14 = C[C@H](CCCc1ncccn1)[C@@H](O)[C@H](C(=O)[*:2])N(C)[*:1]; d(aThr) = C[C@@H](O)[C@@H](N)C(=O)O; NMeL = CN[C@@H](CC(C)C)C(=O)O; dNMeL = CN[C@H](CC(C)C)C(=O)O; dNMeV = CN[C@@H](C(=O)O)C(C)C; Hiv = CC(C)[C@H](O)C(=O)O; dAbu = CC[C@@H](N)C(=O)O; Sar = CNCC(=O)O

Experiments:
cyclophilin A (Cyp A) = biological target: T1, cyclophilin A (Cyp A) (Homo sapiens, UniProt P62937); test: Protease-free PPIase assay, cyclophilin A; type: biochemical
T1 construct: purchased Sigma C3805
T1 sequence (P62937 whole entry): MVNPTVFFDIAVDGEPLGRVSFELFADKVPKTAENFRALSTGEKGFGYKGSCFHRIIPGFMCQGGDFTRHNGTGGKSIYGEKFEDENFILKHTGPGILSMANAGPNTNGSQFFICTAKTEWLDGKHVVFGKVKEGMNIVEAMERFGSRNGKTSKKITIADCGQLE
Description: (§1) The protease-free PPIase assay measures the rate of cis to trans conversion of a peptide substrate catalyzed by the enzymes cyclophilin A and cyclophilin D. Addition of a cyclophilin inhibitor (e.g., a test compound) slows the catalyzed rate and a Ki value is obtained. […] 35 mM HEPES pH 7.8, filtered through a 0.2 μm filter. 50 μM DTT was added prior to use each day and then the buffer was stored on ice. Human recombinant cyclophilin A (Cyp A) (Sigma C3805) enzyme was diluted to 1 μM with enzyme dilution buffer (20 mM HEPES pH 7.8, 40% glycerol, 50 μM DTT and 1 μM BSA) and stored at -20° C. Succinimide-[…]) (from Bachem AG, L-1400), 20 mg/ml prepared in 0.5 M LiCl in trifluoroethanol. All readings were taken with an Agilent 8453 Spectrophotometer which consists of a cuvette holder, stirrer and chiller to maintain a stirred cuvette temperature of 10.0±0.1° C. The temperature is monitored by the use of temperature probe. […] The inhibitor was diluted in 100% DMSO, and then added to the assay to a maximum final concentration of 0.5% DMSO in the assay. A blank spectrum was obtained, then 3 μL of enzyme was added (2 nM final concentration) and then 3 μL substrate (60 μM final concentration) added. The absorbance was measured at 330 nm for 300 s or 500 s for blank runs (NOTE: the substrate must be added in one quick injection and the measurements started immediately to minimize mixing errors). A first order rate equation was fitted to the absorbance data, for each concentration of inhibitor, to obtain the rate constant (the first 10 to 15 seconds were excluded as mixing causes errors in this portion of curve). The catalytic rate was calculated from the enzymatic rate constant minus the background rate constant. An exponential curve was generated using the catalytic rate constants versus the inhibitor concentration to obtain the Ki value for the inhibitor. The Ki value is indicative of the binding affinity between the test compound and cyclophilin A or cyclophilin D.

[1] = Water solubility assay (pH 7.8 buffer); type: physicochemical
Description: ***Water Solubility Assay (Measured in pH 7.8 Buffer)
The onset of precipitation, if it occurred, was detected by an increase in absorbance at 650 nm.
Assay Buffer: 35 mM HEPES pH 7.8
Stock solutions of Control and Test Compounds: 10 mM in 100% DMSO
10 mM stock solutions of control and test compounds were prepared in 100% DMSO. A series of dilutions were prepared from the stock in DMSO so that the final concentrations in the assay were 0, 3.33, 10, 25, 50, 75 and 100 μM and DMSO was limited to 1%.
Assay buffer (247.5 μl) was placed into flat bottomed transparent 96-well plate. For blank samples DMSO (2.5 μl) was added. For test and control samples 2.5 μl of the appropriate DMSO dilution stocks were added to the appropriate well. All test and control compounds were performed in triplicate.
The plates were sealed with adhesive plate seal and shaken at 250 rpm at 25° C. for 18 h on a plate shaker.
After incubation the plate seals were taken off and any bubbles observed in wells removed. The plates were read on a SpectraMaxM5 with a 5 s pre-shake at 650 nm.
Data files were transferred to the appropriate worksheet and the solubility range of the compounds was calculated from the data.
The values shown in the tables indicate the concentration in μM (micromolar) at which the compound remains in solution.

cyclophilin D (Cyp D) = cyclophilin D (Cyp D) (Homo sapiens, UniProt P30405); test: Protease-free PPIase assay, cyclophilin D; type: biochemical
cyclophilin D (Cyp D), sequence (P30405 30-207): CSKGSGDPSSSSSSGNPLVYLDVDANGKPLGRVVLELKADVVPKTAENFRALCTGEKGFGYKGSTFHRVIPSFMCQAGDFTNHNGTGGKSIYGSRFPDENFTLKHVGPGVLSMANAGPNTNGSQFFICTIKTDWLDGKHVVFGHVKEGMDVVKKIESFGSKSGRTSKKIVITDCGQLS
Description: as §1, with “ice.” for “ice. Human recombinant cyclophilin A (Cyp A) (Sigma C3805) enzyme was diluted to 1 μM with enzyme dilution buffer (20 mM HEPES pH 7.8, 40% glycerol, 50 μM DTT and 1 μM BSA) and stored at -20° C.”

[2] = protease-free PPIase assay, class symbols, read-out: CypA Ki
[3] = 35 mM HEPES buffer, 35 mM HEPES pH 7.8, 1% DMSO, 25° C., 18 h, concentration at which compound remains in solution, read-out: Solubility
[4] = protease-free PPIase assay, class symbols, read-out: CypD Ki

Row | Structure (SMILES) | pKi (cyclophilin A (Cyp A)) | solubility at 18 h ([1]; pH 7.8) | pKi (cyclophilin D (Cyp D)) | pKi (cyclophilin A (Cyp A); [2]) | solubility at 18 h [1, 3] | pKi (cyclophilin D (Cyp D); [4])
1 | CC(C)C[C@@H]1C(=O)N[C@H](CC(C)C)C(=O)N(C)[C@H](C(C)C)C(=O)N(C)[C@H]([C@H](O)[C@H](C)CCCc2ncccn2)C(=O)N[C@H]([C@@H](C)O)C(=O)N(C)CC(=O)N(C)[C@@H](CC(C)C)C(=O)N[C@H](CC(C)C)C(=O)N(C)[C@H](CC(C)C)C(=O)N[C@H](C)C(=O)O[C@@H](C(C)C)C(=O)N1C [Example 16, cyclo-[(3R,4R,5S)-4-(hydroxy)-3-methyl-5-(methylamino)-1-(pyrimidin-2-yl)-heptanoic acid-Thr-Sar-MeLeu-Leu-MeLeu-Ala-D-Hiv-MeLeu-Leu-MeVal]] (cyclo([Hiv][dNMeL][dL][dNMeV][X14][d(aThr)][Sar][NMeL][dL][dNMeL][dA])) | 7.60 to 9.00 | 25 to 50 µM (≈ 32.8 to 65.7 µg/mL) | 7.60 to 9.00 | – | – | –
2 | CC(C)C[C@@H]1C(=O)N[C@H](CC(C)C)C(=O)N(C)[C@H](C(C)C)C(=O)N(C)[C@H]([C@H](O)[C@H](C)C/C=C/c2cccc(N3CCOCC3)n2)C(=O)N[C@H]([C@@H](C)O)C(=O)N(C)CC(=O)N(C)[C@@H](CC(C)C)C(=O)N[C@H](CC(C)C)C(=O)N(C)[C@H](CC(C)C)C(=O)N[C@H](C)C(=O)O[C@@H](C(C)C)C(=O)N1C [Example 18, cyclo-{(3R,4R,5S)-4-(hydroxy)-3-methyl-5-(methylamino)-1-(6-morpholin-4-yl-pyridin-2-yl)-hept-1-enoic acid-Thr-Sar-MeLeu-Leu-MeLeu-Ala-D-Hiv-MeLeu-Leu-MeVal}] (cyclo([Hiv][dNMeL][dL][dNMeV][X26][d(aThr)][Sar][NMeL][dL][dNMeL][dA])) | – | – | – | 7.60 to 9.00 | 10 to 25 µM (≈ 14 to 34.9 µg/mL) | 7.60 to 9.00
3 | CC[C@H]1NC(=O)[C@@H]([C@H](O)[C@H](C)C/C=C/c2cccc(C)n2)N(C)C(=O)[C@@H](C(C)C)N(C)C(=O)[C@@H](CC(C)C)NC(=O)[C@@H](CC(C)C)N(C)C(=O)[C@H](C(C)C)OC(=O)[C@@H](C)NC(=O)[C@@H](CC(C)C)N(C)C(=O)[C@@H](CC(C)C)NC(=O)[C@H](CC(C)C)N(C)C(=O)CN(C)C1=O [Example 19, cyclo-[(3R,4R,5S)-4-(hydroxy)-3-methyl-5-(methylamino)-1-(6-methyl-pyridin-2-yl)-hept-1-enoic acid-Abu-Sar-MeLeu-Leu-MeLeu-Ala-D-Hiv-MeLeu-Leu-MeVal]] (cyclo([Hiv][dNMeL][dL][dNMeV][X10][dAbu][Sar][NMeL][dL][dNMeL][dA])) | 7.60 to 9.00 | 10 to 25 µM (≈ 13.1 to 32.7 µg/mL) | 7.60 to 9.00 | – | – | –
4 | CC[C@H]1NC(=O)[C@@H]([C@H](O)[C@H](C)CCCc2cccc(C)n2)N(C)C(=O)[C@@H](C(C)C)N(C)C(=O)[C@@H](CC(C)C)NC(=O)[C@@H](CC(C)C)N(C)C(=O)[C@H](C(C)C)OC(=O)[C@@H](C)NC(=O)[C@@H](CC(C)C)N(C)C(=O)[C@@H](CC(C)C)NC(=O)[C@H](CC(C)C)N(C)C(=O)CN(C)C1=O [Example 21, cyclo-[(3R,4R,5S)-4-(hydroxy)-3-methyl-5-(methylamino)-1-(6-methyl-pyridin-2-yl)-heptanoic acid-Abu-Sar-MeLeu-Leu-MeLeu-Ala-D-Hiv-MeLeu-Leu-MeVal]] (cyclo([Hiv][dNMeL][dL][dNMeV][X1][dAbu][Sar][NMeL][dL][dNMeL][dA])) | 7.60 to 9.00 | 10 to 25 µM (≈ 13.1 to 32.8 µg/mL) | 7.60 to 9.00 | – | – | –
5 | CC(C)C[C@@H]1C(=O)N[C@H](CC(C)C)C(=O)N(C)[C@H](C(C)C)C(=O)N(C)[C@H]([C@H](O)[C@H](C)CCN2CCC(F)(F)CC2)C(=O)N[C@H]([C@@H](C)O)C(=O)N(C)CC(=O)N(C)[C@@H](CC(C)C)C(=O)N[C@H](CC(C)C)C(=O)N(C)[C@H](CC(C)C)C(=O)N[C@H](C)C(=O)O[C@@H](C(C)C)C(=O)N1C [Example 24, cyclo-[(3R,4R,5S)-4-(hydroxy)-3-methyl-5-(methylamino)-1-N-(4,4-difluoro-piperidine)-hexanoic acid-Thr-Sar-MeLeu-Leu-MeLeu-Ala-D-Hiv-MeLeu-Leu-MeVal]] (cyclo([Hiv][dNMeL][dL][dNMeV][X20][d(aThr)][Sar][NMeL][dL][dNMeL][dA])) | 7.60 to 9.00 | 25 to 50 µM (≈ 33.5 to 67 µg/mL) | 7.60 to 9.00 | – | – | –
6 | CC(C)C[C@@H]1C(=O)N[C@H](CC(C)C)C(=O)N(C)[C@H](C(C)C)C(=O)N(C)[C@H]([C@H](O)[C@H](C)CCN2CCC(F)(CO)CC2)C(=O)N[C@H]([C@@H](C)O)C(=O)N(C)CC(=O)N(C)[C@@H](CC(C)C)C(=O)N[C@H](CC(C)C)C(=O)N(C)[C@H](CC(C)C)C(=O)N[C@H](C)C(=O)O[C@@H](C(C)C)C(=O)N1C [Example 25, cyclo-[(3R,4R,5S)-4-(hydroxy)-3-methyl-5-(methylamino)-1-N-((4-fluoro-piperidin-4-yl)-methanol)-hexanoic acid-Thr-Sar-MeLeu-Leu-MeLeu-Ala-D-Hiv-MeLeu-Leu-MeVal]] (cyclo([Hiv][dNMeL][dL][dNMeV][X33][d(aThr)][Sar][NMeL][dL][dNMeL][dA])) | – | – | – | 6.52 to 7.00 | > 100 µM | 6.52 to 7.00
7 | CC(C)C[C@@H]1C(=O)N[C@H](CC(C)C)C(=O)N(C)[C@H](C(C)C)C(=O)N(C)[C@H]([C@H](O)[C@H](C)CCN2CCC[C@H]2CO)C(=O)N[C@H]([C@@H](C)O)C(=O)N(C)CC(=O)N(C)[C@@H](CC(C)C)C(=O)N[C@H](CC(C)C)C(=O)N(C)[C@H](CC(C)C)C(=O)N[C@H](C)C(=O)O[C@@H](C(C)C)C(=O)N1C [Example 26, cyclo-[(3R,4R,5S)-4-(hydroxy)-3-methyl-5-(methylamino)-1-N—((S)-1-Pyrrolidin-2-yl-methanol)-hexanoic acid-Thr-Sar-MeLeu-Leu-MeLeu-Ala-D-Hiv-MeLeu-Leu-MeVal]] (cyclo([Hiv][dNMeL][dL][dNMeV][X8][d(aThr)][Sar][NMeL][dL][dNMeL][dA])) | 6.52 to 7.00 | > 100 µM | 7.00 to 7.60 | – | – | –
8 | CC(C)C[C@@H]1C(=O)N[C@H](CC(C)C)C(=O)N(C)[C@H](C(C)C)C(=O)N(C)[C@H]([C@H](O)[C@H](C)CCN(C)CCC#N)C(=O)N[C@H]([C@@H](C)O)C(=O)N(C)CC(=O)N(C)[C@@H](CC(C)C)C(=O)N[C@H](CC(C)C)C(=O)N(C)[C@H](CC(C)C)C(=O)N[C@H](C)C(=O)O[C@@H](C(C)C)C(=O)N1C [Example 27, cyclo-[(3R,4R,5S)-4-(hydroxy)-3-methyl-5-(methylamino)-1-N-(3-methylamino-propionitrile)-hexanoic acid-Thr-Sar-MeLeu-Leu-MeLeu-Ala-D-Hiv-MeLeu-Leu-MeVal]] (cyclo([Hiv][dNMeL][dL][dNMeV][X11][d(aThr)][Sar][NMeL][dL][dNMeL][dA])) | 7.00 to 7.60 | > 100 µM | 7.60 to 9.00 | – | – | –
